Residues, ends and D or L forms follow the SMILES beside them.
What was measured:
[1] = Method for Testing Solubilization: time required for completely dissolving crushed α-APM sample in water; format: physicochemical; details: 26±2° C.; for time required for completely dissolving the sample (solubilization test): 250 mg crushed sample in 250 ml purified water, magnetic stirrer 350-360 rpm, stirring and standing alternated every 30 seconds; for Solubilization (minutes), Table 1 / Solubilization (min), Table 2: 250 mg in 250 ml purified water, stirring/standing every 30 seconds
Experimental: Crushed α-APM sample (250 mg) is poured into 250 ml of purified water at 26±2° C. with stirring by a magnetic stirrer at 350- 360 rpm. Stirring and standing are alternately repeated for every 30 seconds and the time required for completely dissolving the sample is measured.

[2] = Hard block formation on drying; format: physicochemical; details: dry crystalline α-APM
[3] = Thermal stability in solution (diketopiperazine formation); format: physicochemical; details: aqueous medium, temperatures higher than 70° C.
[4] = pH; cited from earlier work
[5] = crystallized by cooling without forced flow, Japanese Laid-Open Patent No. 177952/1983; cited from earlier work
[6] = Solubilization of conventionally recrystallized α-APM (background); format: physicochemical; details: 250 mg in 250 ml water, room temperature
Source text: α-APM purified by conventional recrystallization methods has the disadvantage of poor solubilization (rate of solution) in water.

Q: Which “time required for completely dissolving the sample (solubilization test)” value (“time required … (solubilization test)” below) [1] does the source give for COC(=O)[C@H](Cc1ccccc1)NC(=O)[C@@H](N)CC(=O)O [Example 1, α-L-aspartyl-L-phenylalanine methyl ester] (H-Asp-Phe-OMe) here?
A: ≤ 5 min

Q: For COC(=O)[C@H](Cc1ccccc1)NC(=O)[C@@H](N)CC(=O)O [Example 2, α-L-aspartyl-L-phenylalanine methyl ester] (H-Asp-Phe-OMe), which “time required … (solubilization test)” value [1] is on record?
A: ≤ 5 min

Q: For COC(=O)[C@H](Cc1ccccc1)NC(=O)[C@@H](N)CC(=O)O [Example 3, α-L-aspartyl-L-phenylalanine methyl ester] (H-Asp-Phe-OMe), which “time required … (solubilization test)” value [1] is on record?
A: ≤ 5 min

Q: For COC(=O)[C@H](Cc1ccccc1)NC(=O)[C@@H](N)CC(=O)O [Example 4, α-L-aspartyl-L-phenylalanine methyl ester] (H-Asp-Phe-OMe), which “time required … (solubilization test)” value [1] is on record?
A: ≤ 5 min

Q: For COC(=O)[C@H](Cc1ccccc1)NC(=O)[C@@H](N)CC(=O)O [Example 5, α-L-aspartyl-L-phenylalanine methyl ester] (H-Asp-Phe-OMe), which “Solubilization (minutes), Table 1” value ([1]; listed as Ex. 5) is on record?
A: 6.5 min

Q: Which “Solubilization (minutes), Table 1” value ([1]; listed as Ex. 6) does the source give for COC(=O)[C@H](Cc1ccccc1)NC(=O)[C@@H](N)CC(=O)O [Example 6, α-L-aspartyl-L-phenylalanine methyl ester] (H-Asp-Phe-OMe) here?
A: 6.5 min

Q: For COC(=O)[C@H](Cc1ccccc1)NC(=O)[C@@H](N)CC(=O)O [Example 7, α-L-aspartyl-L-phenylalanine methyl ester] (H-Asp-Phe-OMe), which “Solubilization (minutes), Table 1” value ([1]; listed as Ex. 7) is on record?
A: 4.5 min

Q: Which “Solubilization (minutes), Table 1” value ([1]; listed as Ex. 8) does the source give for COC(=O)[C@H](Cc1ccccc1)NC(=O)[C@@H](N)CC(=O)O [Example 8, α-L-aspartyl-L-phenylalanine methyl ester] (H-Asp-Phe-OMe) here?
A: 5.5 min

Q: Which “Solubilization (minutes), Table 1” value ([1]; listed as Ex. 9) does the source give for COC(=O)[C@H](Cc1ccccc1)NC(=O)[C@@H](N)CC(=O)O [Example 9, α-L-aspartyl-L-phenylalanine methyl ester] (H-Asp-Phe-OMe) here?
A: 7.5 min

Q: With COC(=O)[C@H](Cc1ccccc1)NC(=O)[C@@H](N)CC(=O)O [Example 10, α-L-aspartyl-L-phenylalanine methyl ester] (H-Asp-Phe-OMe) as the compound, how does the “Solubilization (minutes), Table 1” value ([1]; listed as Ex. 10) read?
A: 5.5 min

Q: For COC(=O)[C@H](Cc1ccccc1)NC(=O)[C@@H](N)CC(=O)O [Example 11, α-L-aspartyl-L-phenylalanine methyl ester] (H-Asp-Phe-OMe), which “time required … (solubilization test)” value [1] is on record?
A: 6.5 min

Q: Which “time required … (solubilization test)” value [1] does the source give for COC(=O)[C@H](Cc1ccccc1)NC(=O)[C@@H](N)CC(=O)O [Example 12, α-L-aspartyl-L-phenylalanine methyl ester] (H-Asp-Phe-OMe) here?
A: 5.5 min

Q: With COC(=O)[C@H](Cc1ccccc1)NC(=O)[C@@H](N)CC(=O)O [Example 13, α-L-aspartyl-L-phenylalanine methyl ester] (H-Asp-Phe-OMe) as the compound, how does the “time required … (solubilization test)” value [1] read?
A: 5.5 min

Q: Which “time required … (solubilization test)” value [1] does the source give for COC(=O)[C@H](Cc1ccccc1)NC(=O)[C@@H](N)CC(=O)O [Example 14, α-L-aspartyl-L-phenylalanine methyl ester] (H-Asp-Phe-OMe) here?
A: 6.5 min

Q: For COC(=O)[C@H](Cc1ccccc1)NC(=O)[C@@H](N)CC(=O)O [Example 15, α-L-aspartyl-L-phenylalanine methyl ester] (H-Asp-Phe-OMe), which “time required … (solubilization test)” value [1] is on record?
A: 5.5 min

Q: For COC(=O)[C@H](Cc1ccccc1)NC(=O)[C@@H](N)CC(=O)O [Example 16, α-L-aspartyl-L-phenylalanine methyl ester] (H-Asp-Phe-OMe), which “time required … (solubilization test)” value [1] is on record?
A: ≤ 5 min

Q: For COC(=O)[C@H](Cc1ccccc1)NC(=O)[C@@H](N)CC(=O)O [Example 17, α-L-aspartyl-L-phenylalanine methyl ester] (H-Asp-Phe-OMe), which “time required … (solubilization test)” value [1] is on record?
A: ≤ 5 min

Q: For COC(=O)[C@H](Cc1ccccc1)NC(=O)[C@@H](N)CC(=O)O [Example 18, α-L-aspartyl-L-phenylalanine methyl ester] (H-Asp-Phe-OMe), which “time required … (solubilization test)” value [1] is on record?
A: ≤ 5 min

Q: Which “Solubilization (min), Table 2” value [1] does the source give for COC(=O)[C@H](Cc1ccccc1)NC(=O)[C@@H](N)CC(=O)O [Example 19, α-L-aspartyl-L-phenylalanine methyl ester] (H-Asp-Phe-OMe) here?
A: 5.5 min

Q: With COC(=O)[C@H](Cc1ccccc1)NC(=O)[C@@H](N)CC(=O)O [Example 20, α-L-aspartyl-L-phenylalanine methyl ester] (H-Asp-Phe-OMe) as the compound, how does the “Solubilization (min), Table 2” value [1] read?
A: 5.5 min

Q: With COC(=O)[C@H](Cc1ccccc1)NC(=O)[C@@H](N)CC(=O)O [Example 21, α-L-aspartyl-L-phenylalanine methyl ester] (H-Asp-Phe-OMe) as the compound, how does the “Solubilization (min), Table 2” value [1] read?
A: 5.5 min

Q: Which “Solubilization (min), Table 2” value [1] does the source give for COC(=O)[C@H](Cc1ccccc1)NC(=O)[C@@H](N)CC(=O)O [Example 22, α-L-aspartyl-L-phenylalanine methyl ester] (H-Asp-Phe-OMe) here?
A: 5.0 min

Q: Which “time required … (solubilization test)” value [1] does the source give for COC(=O)[C@H](Cc1ccccc1)NC(=O)[C@@H](N)CC(=O)O [Example 23, α-L-aspartyl-L-phenylalanine methyl ester] (H-Asp-Phe-OMe) here?
A: ≤ 5 min

Q: For COC(=O)[C@H](Cc1ccccc1)NC(=O)[C@@H](N)CC(=O)O [compound 1, α-L-aspartyl-L-phenylalanine methyl ester, reference compound] (H-Asp-Phe-OMe), which “time required … (solubilization test)” value [1] is on record?
A: 12.5 min

Q: With COC(=O)[C@H](Cc1ccccc1)NC(=O)[C@@H](N)CC(=O)O [compound 2, α-L-aspartyl-L-phenylalanine methyl ester, reference compound] (H-Asp-Phe-OMe) as the compound, how does the “time required … (solubilization test)” value [1] read?
A: 11.5 min

Q: Which “time required … (solubilization test)” value [1] does the source give for COC(=O)[C@H](Cc1ccccc1)NC(=O)[C@@H](N)CC(=O)O [compound 3, α-L-aspartyl-L-phenylalanine methyl ester, reference compound] (H-Asp-Phe-OMe) here?
A: 12.5 min

Q: Which “time required … (solubilization test)” value [1] does the source give for COC(=O)[C@H](Cc1ccccc1)NC(=O)[C@@H](N)CC(=O)O [compound 4, α-L-aspartyl-L-phenylalanine methyl ester, reference compound] (H-Asp-Phe-OMe) here?
A: 13.5 min

Q: Which “Solubilization (minutes), Table 1” value ([1]; listed as Comp. Ex. 5) does the source give for COC(=O)[C@H](Cc1ccccc1)NC(=O)[C@@H](N)CC(=O)O [compound 5, α-L-aspartyl-L-phenylalanine methyl ester, reference compound] (H-Asp-Phe-OMe) here?
A: 12.5 min

Q: Which “Solubilization (minutes), Table 1” value ([1]; listed as Comp. Ex. 6) does the source give for COC(=O)[C@H](Cc1ccccc1)NC(=O)[C@@H](N)CC(=O)O [compound 6, α-L-aspartyl-L-phenylalanine methyl ester, reference compound] (H-Asp-Phe-OMe) here?
A: 13.5 min

Q: For COC(=O)[C@H](Cc1ccccc1)NC(=O)[C@@H](N)CC(=O)O [compound 7, α-L-aspartyl-L-phenylalanine methyl ester, reference compound] (H-Asp-Phe-OMe), which “time required … (solubilization test)” value [1] is on record?
A: 13.5 min

Q: Which “time required … (solubilization test)” value [1] does the source give for COC(=O)[C@H](Cc1ccccc1)NC(=O)[C@@H](N)CC(=O)O [compound 8, α-L-aspartyl-L-phenylalanine methyl ester, reference compound] (H-Asp-Phe-OMe) here?
A: 12.5 min

Q: Which “time required … (solubilization test)” value [1] does the source give for COC(=O)[C@H](Cc1ccccc1)NC(=O)[C@@H](N)CC(=O)O [compound 9, α-L-aspartyl-L-phenylalanine methyl ester, reference compound] (H-Asp-Phe-OMe) here?
A: 12 min

Q: Which “hard block formation in the dry state” value [2] does the source give for COC(=O)[C@H](Cc1ccccc1)NC(=O)[C@@H](N)CC(=O)O [α-APM, α-L-aspartyl-L-phenylalanine methyl ester] (H-Asp-Phe-OMe) here?
A: forms a hard block in the dry state

Q: What about the “thermal stability in solution” value [3] of the same compound?
A: diketopiperazine compound is undesirably formed as by-product

Q: What about the isoelectric point [4] of the same compound?
A: 5.6

Q: And the “solubilization compared to conventionally crystallized product” value [5]?
A: excellent solubilization as compared to conventionally crystallized product

Q: And the “time required to dissolve completely” value ([6]; crushed powder recrystallized from 50 vol. % aqueous methanol, stirring and standing every 30 seconds)?
A: more than 15 minutes

Q: What about the “undissolved α-APM after 5 minutes” value ([6]; recrystallized from 50 vol. % aqueous methanol) of the same compound?
A: a significant amount of undissolved α-APM remains even after 5 minutes
